Measurements published in patent publication US6326401A, “Formulation for the oromucosal, in particular pernasal, route” (Immunotech, priority 1998, dated 2001).
Read-outs that look alike come from different tables or passages of the source.

How the values were obtained:
[1] = Bioavailability test: serum IS 159 after nasal administration of the solution and control solution of example 1 (Example 4); assay type: in vivo, man; details: for AUC at 4 h / Tmax: human, serum; for AUC at 4 h: observation period 4 hours; for Tmax: read-out: apparent Tmax (converted)
[2] = Reproducibility of bioavailability of the aqueous nasal solution plus Labrasol (Example 5); assay type: in vivo, human subjects; details: 100 μl (4 mg), with Labrasol, 8 subjects
[3] = Dose/effect and reproducibility of bioavailability, nasal 4 mg and 7 mg (Example 6); assay type: in vivo, human subjects; details: with Labrasol
Experimental: The black squares represent the dose of 4 mg and the white squares represent the dose of 7 mg.

[4] = Compared bioavailability of sublingual formulations without and with Labrasol (Example 7); assay type: in vivo, healthy volunteer subjects; details: 10 mg, sublingual tablet; for AUC at 6 h / Tmax: human, serum; for AUC at 6 h: observation period 6 hours; for Tmax: read-out: apparent Tmax (converted)
Experimental: The serum concentrations of IS 159 as a function of time were measured on healthy volunteer subjects. These subjects received an identical amount of active substance IS 159 (10 mg) in the form of tablets in the absence or presence of Labrasol® (2%) by sublingual administration.

[5] = Comparison between aqueous nasal solution and sublingual formulation (Example 8); assay type: in vivo, healthy volunteer subjects; details: human, serum, 10 mg; for AUC(0-inf): read-out: AUC from time 0 to infinity
Experimental: (§1) The serum concentrations of IS 159 as a function of time were measured on healthy volunteer subjects.

[6] = Compared bioavailability of aqueous nasal solution/aqueous subcutaneous solution (Example 9); assay type: in vivo, healthy volunteer subjects; details: 4 mg; for Tmax / half-life: human, serum; for half-life: read-out: Terminal half-life (converted)
Experimental: as §1

[7] = control solution without Labrasol

AUC at 4 h [1, 7]: 12 ng·h/mL | Tmax [1, 7]: 30 min | AUC at 4 h ([1]; with Labrasol): 85 ng·h/mL | Tmax ([1]; with Labrasol): 10 to 15 min | absorption (Cmax) ([1]; with Labrasol vs control solution): increases the absorption (Cmax) | interindividual and intraindividual reproducibilities of the pharmacokinetic parameters [2]: good | intra-individual and interindividual reproducibility of the pharmacokinetic parameters [3]: good | ratios of the AUCs and the maximum concentrations [3]: constant and high | AUC at 6 h ([4]; control (2% lactose)): 0.42 ng·h/mL | Tmax ([4]; control without Labrasol): 45 min | AUC at 6 h ([4]; with 2% Labrasol): 9.72 ng·h/mL | Tmax ([4]; with 2% Labrasol): 35 min | absorption (Cmax) ([4]; with 2% Labrasol vs control): increases the absorption (Cmax) | AUC(0-inf) ([5]; nasal solution with Labrasol): 166 ng·h/mL | AUC(0-inf) ([5]; sublingual tablet with 2% Labrasol): 12 ng·h/mL | half-life ([5]; nasal and sublingual with Labrasol, read-out: terminal half-life (converted)): ~150 min | Tmax ([6]; sc, mean s.c.): 30 min | half-life ([6]; sc, mean s.c.): 150 min | Tmax ([6]; mean nasal, with Labrasol): 15 min | half-life ([6]; mean nasal, with Labrasol): 150 min | AUC/dose ([6]; mean nasal, with Labrasol): 14 (h.ng/ml)(mg dose IS 159) | Cmax/dose ([6]; mean nasal, with Labrasol): 11 ng/mL | AUC/dose ([6]; mean s.c.): 36 (h.ng/ml)(mg dose IS 159) | Cmax/dose ([6]; mean s.c.): 20 ng/mL | AUC/dose, ratio Nasal/s.c. ([6]; nasal (with Labrasol) / s.c.): 39% | Cmax/dose, ratio Nasal/s.c. ([6]; nasal (with Labrasol) / s.c.): 55% | Tmax, Nasal/s.c. ([6]; nasal (with Labrasol) vs s.c.): reduced | terminal half-life, change ([6]; nasal vs subcutaneous): not changed significantly
Structure (SMILES): NCCc1c[nH]c2ccc(OCC(=O)NC(Cc3ccc(O)cc3)C(=O)NCC(N)=O)cc12 (centres unmarked) [IS 159, tryptamine 5-O-carboxymethyl-tyrosyl-glycinamide]
bioavailability ([6]; nasal solution with Labrasol, compared with subcutaneous): significant and faster than by the subcutaneous route
